Data on 18 compounds can be found in patent publication US9695155B2, “Herbicidal substituted pyrimidinyloxy benzene compounds” (E. I. DU PONT DE NEMOURS AND COMPANY, priority 2013, dated 2017).

In one assay the test system is rice. The experiment in a line: Test C flooded paddy test. It is filed as in vivo, Oryza sativa. The following applies: Flood, scale 0 to 100 (0 no effect, 100 complete control), 13 to 15 days. The procedure, abridged:
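Under a constant 3 cm flood, test compounds went directly into the paddy water. Following 13 to 15 days of greenhouse growth, treated species and controls were compared by eye.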

For another assay, the system named is ragweed. Description: Test A preemergence. It is filed as in vivo, Ambrosia elatior. Summed up:
(§1)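 Compounds in non-phytotoxic solvent with surfactant applied as soil spray preemergence, or postemergence to plants 2-10 cm at one- to two-leaf stage, in loam/sand. After approximately 10 days in greenhouse, injury rated visually versus untreated controls, 0 (no effect) to 100 (complete control).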

In a further assay the test system is kochia. Description: Test A postemergence. Type of assay: in vivo, Kochia scoparia. Summed up: as §1
Another assay has as its system Italian ryegrass. Description: Test A postemergence. Type of assay: in vivo, Lolium multiflorum. Summed up: as §1
[1] abbreviates: 125 g ai/ha, 0 to 100 scale where 0 is no effect and 100 is complete control.
The mark [2] stands for this setting: 500 g ai/ha, 0 to 100 scale, 0 no effect, 100 complete control, approx. 10 days.
The mark [3] stands for this setting: 500 g ai/ha, 0 to 100 scale where 0 is no effect and 100 is complete control.
[4] abbreviates: 31 g ai/ha, 0 to 100 scale, 0 no effect, 100 complete control.
Setting [5] is: 1000 g ai/ha, 0 to 100 scale, 0 no effect, 100 complete control, approx. 10 days.
Where [6] appears, read: 1000 g ai/ha, 0 to 100 scale, 0 no effect, 100 complete control.
[7] abbreviates: 31 g ai/ha, 0 to 100 scale where 0 is no effect and 100 is complete control, visual, approximately 10 days.
The mark [8] stands for this setting: 125 g ai/ha, 0 to 100 scale, 0 no effect, 100 complete control.

Take `Clc1cnc(Oc2ccccc2-n2cc(Cl)cn2)nc1` [Compound 3]: the “Plant response rating, Rice” value in the assay on rice (31 g ai/ha), in the assay on rice (62 g ai/ha), in the assay with rice (125 g ai/ha) and in the assay on rice (250 g ai/ha) was 0 in each case.

With `N#Cc1cccc(Oc2ncc(F)cn2)c1-n1cc(Br)cn1` [Compound 62], the “Plant response rating, Rice” value came out at 15 with rice (31 g ai/ha), 15 in the assay with rice (62 g ai/ha), 15 in the assay on rice (125 g ai/ha) and 25 in the assay on rice (250 g ai/ha).

As for `Clc1cnc(Oc2cccc(Br)c2-n2cc(Br)cn2)nc1` [Compound 65], the “Plant response rating, Rice” value in the assay on rice (31 g ai/ha), with rice (62 g ai/ha), with rice (125 g ai/ha) and with rice (250 g ai/ha) was 0 each time.

On to `FCc1cccc(Oc2ncc(Cl)cn2)c1-n1cc(Br)cn1` [Compound 83], for which, in the assay on ragweed (setting [1]), the “Plant response rating, Ragweed” value was found to be 20. Further, the “Ragweed plant response rating” value in the assay with ragweed (setting [2]) was found to be 50. The “Plant response rating, Kochia” value in the assay on kochia (setting [1]) and in the assay with kochia (setting [3]) was 100 each time. Further, the “Plant response rating, Ryegrass, Italian” value in the assay on Italian ryegrass (setting [1]) is 50; in the assay with Italian ryegrass (setting [3]), 80.

Take `CCOc1cn(-c2c(Br)cccc2Oc2ncc(Cl)cn2)nn1` [Compound 84]: the “Plant response rating, Ragweed” value in the assay on ragweed (setting [1]) worked out at 10. Also, the “Ragweed plant response rating” value in the assay on ragweed (setting [2]) is 40. The “Plant response rating, Kochia” value in the assay on kochia (setting [1]) and in the assay with kochia (setting [3]) was 100 throughout. Besides, the “Plant response rating, Ryegrass, Italian” value with Italian ryegrass (setting [1]) amounted to 50; with Italian ryegrass (setting [3]), 80.

Regarding `FCc1cccc(Oc2ncc(F)cn2)c1-n1cc(C(F)(F)F)cn1` [Compound 118], the “Ragweed plant response rating (0 to 100 scale)” value in the assay with ragweed (31 g ai/ha) worked out at 50. In the assay on ragweed (setting [1]), the “Plant response rating, Ragweed” value is 90. Also, the “Plant response rating, Kochia” value is 60 with kochia (setting [4]) and 100 with kochia (setting [1]). In the assay with Italian ryegrass (setting [4]), the “Plant response rating, Ryegrass, Italian” value is recorded as 20.

As for `FCc1cccc(Oc2ncc(Br)cn2)c1-n1cc(C(F)(F)F)cn1` [Compound 120], the “Ragweed plant response rating (0 to 100 scale)” value with ragweed (31 g ai/ha) is given as 0. Also, the “Plant response rating, Ragweed” value in the assay with ragweed (setting [1]) was found to be 0. The “Plant response rating, Kochia” value is given as 60 with kochia (setting [4]) and 90 with kochia (setting [1]). The “Plant response rating, Ryegrass, Italian” value with Italian ryegrass (setting [4]) was found to be 0. Further, the “Plant response rating, Rice” value with rice (31 g ai/ha) turned out to be 0; in the assay with rice (62 g ai/ha), 0; with rice (125 g ai/ha), 15; with rice (250 g ai/ha), 60.

In the case of `Clc1cnc(Oc2cccc(Br)c2-n2cc(Br)nn2)nc1` [Compound 129], the “Plant response rating, Ragweed” value with ragweed (setting [1]) came to 30. For the same compound, the “Ragweed plant response rating” value in the assay on ragweed (setting [3]) was determined as 80. Besides, in the assay with kochia (setting [1]), the “Kochia plant response rating” value amounted to 100. The “Plant response rating, Kochia” value in the assay on kochia (setting [3]) worked out at 100. Also, the “Ryegrass, Italian plant response rating” value in the assay on Italian ryegrass (setting [1]) is given as 50. Further, in the assay on Italian ryegrass (setting [3]), the “Plant response rating, Ryegrass, Italian” value turned out to be 90.

In the case of `FC(F)(F)Sc1cnn(-c2ccccc2Oc2ncc(Cl)cn2)c1` [Compound 132, 5-chloro-2-[2-[4-(trifluoromethylthio)-1H-pyrazol-1-yl]phenoxy]pyrimidine], the “Plant response rating, Ragweed” value in the assay with ragweed (setting [1]) is listed as 0. The “Ragweed plant response rating” value in the assay on ragweed (setting [3]) is given as 10. Further, the “Kochia plant response rating” value with kochia (setting [1]) was determined as 90. Moreover, in the assay on kochia (setting [3]), the “Plant response rating, Kochia” value stood at 100. Moreover, in the assay with Italian ryegrass (setting [1]), the “Ryegrass, Italian plant response rating” value is 10. Moreover, in the assay on Italian ryegrass (setting [3]), the “Plant response rating, Ryegrass, Italian” value was 60.

Take `Cc1cnc(Oc2cccc(C#N)c2-n2cc(I)cn2)nc1` [Compound 136]: the “Plant response rating, Ragweed” value in the assay on ragweed (setting [1]) was found to be 80. For the same compound, the “Ragweed plant response rating” value in the assay with ragweed (setting [3]) stood at 100. In addition, the “Kochia plant response rating” value in the assay on kochia (setting [1]) is recorded as 70. Moreover, the “Plant response rating, Kochia” value in the assay on kochia (setting [3]) was 100. The “Ryegrass, Italian plant response rating” value in the assay with Italian ryegrass (setting [1]) is 30. Moreover, the “Plant response rating, Ryegrass, Italian” value in the assay on Italian ryegrass (setting [3]) stood at 90.

Take `COc1cnn(-c2c(C#N)cccc2Oc2ncc(Cl)cn2)c1` [Compound 137]: the “Plant response rating, Ragweed” value in the assay on ragweed (setting [1]) stood at 30. For the same compound, the “Ragweed plant response rating” value in the assay on ragweed (setting [3]) was 60. Further, the “Kochia plant response rating” value in the assay with kochia (setting [1]) came to 80. In addition, in the assay on kochia (setting [3]), the “Plant response rating, Kochia” value was found to be 100. The “Ryegrass, Italian plant response rating” value in the assay on Italian ryegrass (setting [1]) is 20. Moreover, in the assay with Italian ryegrass (setting [3]), the “Plant response rating, Ryegrass, Italian” value is recorded as 80.

On to `CCCOc1cnn(-c2c(C#N)cccc2Oc2ncc(Cl)cn2)c1` [Compound 150], for which the “Plant response rating, Ragweed” value in the assay with ragweed (setting [1]) was 30. Besides, the “Ragweed plant response rating” value in the assay with ragweed (setting [3]) is given as 70. Moreover, in the assay on kochia (setting [1]), the “Kochia plant response rating” value stood at 70. Besides, the “Plant response rating, Kochia” value in the assay with kochia (setting [3]) worked out at 100. For the same compound, the “Ryegrass, Italian plant response rating” value in the assay with Italian ryegrass (setting [1]) was 40. Further, in the assay with Italian ryegrass (setting [3]), the “Plant response rating, Ryegrass, Italian” value was found to be 100. The “Plant response rating, Rice” value in the assay on rice (31 g ai/ha), with rice (62 g ai/ha), in the assay on rice (125 g ai/ha) and in the assay with rice (250 g ai/ha) was 0 in each case.

`FCc1cn(-c2c(F)cccc2Oc2ncc(Cl)cn2)nn1` [Compound 154]: the “Ragweed plant response rating” value with ragweed (setting [5]) is recorded as 100. The “Plant response rating, Kochia” value in the assay with kochia (setting [6]) is 100. For the same compound, in the assay on Italian ryegrass (setting [6]), the “Plant response rating, Ryegrass, Italian” value is given as 90.

Consider `Fc1cccc(Oc2ncc(Cl)cn2)c1-n1cc(C2CC2)nn1` [Compound 155], for which the “Ragweed plant response rating” value in the assay on ragweed (setting [5]) is on record as 90. Further, the “Plant response rating, Kochia” value with kochia (setting [6]) came out at 100. Also, in the assay with Italian ryegrass (setting [6]), the “Plant response rating, Ryegrass, Italian” value was 100.

With `N#Cc1cnn(-c2c(Oc3ncc(Cl)cn3)cccc2C(F)F)c1` [Compound 236], the “Plant response rating, Rice” value stood at 0 in the assay on rice (31 g ai/ha), 0 in the assay with rice (62 g ai/ha), 10 in the assay with rice (125 g ai/ha) and 20 in the assay with rice (250 g ai/ha).

With `N#Cc1cccc(Oc2ncc(Cl)cn2)c1-n1cnc(C(F)(F)F)c1` [Compound 252, 3-[(5-chloro-2-pyrimidinyl)oxy]-2-[4-(trifluoromethyl)-1H-imidazol-1-yl]benzonitrile], the “Plant response rating, Ragweed” value in the assay with ragweed (setting [7]) came out at 20. The “Ragweed plant response rating (0 to 100 scale)” value in the assay on ragweed (125 g ai/ha) is on record as 70. Besides, the “Ragweed plant response rating” value in the assay with ragweed (setting [3]) is listed as 100. The figures for the “Plant response rating, Kochia” value in the assay with kochia (setting [4]), with kochia (setting [8]) and in the assay with kochia (setting [3]) were 70, 100 and 100, respectively. Moreover, the entries for the “Plant response rating, Ryegrass, Italian” value in the assay with Italian ryegrass (setting [4]), in the assay with Italian ryegrass (setting [8]) and in the assay with Italian ryegrass (setting [3]) were 0, 40 and 70, respectively.

Consider `Fc1cccc(Oc2ncc(Cl)cn2)c1-n1cc(OCC(F)(F)F)cn1` [Compound 270], for which the “Plant response rating, Ragweed” value in the assay on ragweed (setting [7]) was found to be 0. Moreover, the “Ragweed plant response rating (0 to 100 scale)” value in the assay with ragweed (125 g ai/ha) turned out to be 20. Also, the “Plant response rating, Kochia” value in the assay with kochia (setting [4]) amounted to 60; with kochia (setting [8]) it was 70. The “Plant response rating, Ryegrass, Italian” value was 0 with Italian ryegrass (setting [4]) and 30 in the assay on Italian ryegrass (setting [8]). Besides, the “Plant response rating, Rice” value was determined as 0 with rice (31 g ai/ha), 0 in the assay on rice (62 g ai/ha), 0 in the assay on rice (125 g ai/ha) and 30 in the assay with rice (250 g ai/ha).

`N#Cc1cccc(Oc2ncc(Cl)cn2)c1-n1cc(-n2ccc(C(F)(F)F)n2)cn1` [Compound 284]: the “Ragweed plant response rating (0 to 100 scale)” value in the assay on ragweed (125 g ai/ha) came to 0. The “Ragweed plant response rating” value in the assay with ragweed (setting [3]) is listed as 0. In addition, the “Plant response rating, Kochia” value in the assay with kochia (setting [8]) is 60; in the assay on kochia (setting [3]), 100. Besides, the “Plant response rating, Ryegrass, Italian” value in the assay on Italian ryegrass (setting [8]) is reported as 20; with Italian ryegrass (setting [3]) it was 60.
